US10934298B2, “Substituted pyrazolo[1,5-a]pyrimidines for the treatment of medical disorders” (BIAL—BioTech Investments, Inc., priority 2016, dated 2021)

Target: T1, glucocerebrosidase (Gcase) (Homo sapiens, UniProt P04062)
T1 construct: micellar solution containing 10 nM GCase and 100 nM saposin C
T1 sequence (P04062 40-536): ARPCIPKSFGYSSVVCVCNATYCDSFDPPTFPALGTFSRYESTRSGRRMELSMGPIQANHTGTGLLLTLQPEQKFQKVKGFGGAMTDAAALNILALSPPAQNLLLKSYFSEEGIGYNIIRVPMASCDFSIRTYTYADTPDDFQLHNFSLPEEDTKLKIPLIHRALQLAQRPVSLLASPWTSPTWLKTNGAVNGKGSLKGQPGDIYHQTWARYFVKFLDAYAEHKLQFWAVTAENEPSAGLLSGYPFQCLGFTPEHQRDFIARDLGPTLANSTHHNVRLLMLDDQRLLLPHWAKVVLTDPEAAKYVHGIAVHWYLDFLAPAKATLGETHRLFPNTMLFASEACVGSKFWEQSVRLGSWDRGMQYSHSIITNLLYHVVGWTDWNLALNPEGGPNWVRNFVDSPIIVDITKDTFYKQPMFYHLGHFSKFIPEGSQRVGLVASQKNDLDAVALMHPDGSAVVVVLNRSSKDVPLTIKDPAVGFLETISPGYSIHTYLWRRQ
Test: Glucocerebrosidase (Gcase) activation assay with 4-methylumbelliferyl-beta-D-glucopyranoside substrate, saposin C and phosphatidylserine/triton micelles, fluorescence readout
Assay type: biochemical
Conditions: for Percent Gcase Activation, 0.1 μM Test Compound: test compound at 0.1 μM; for Percent Gcase Activation, 1 μM Test Compound: test compound at 1.0 μM
How it was run: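 Fluorescence (ex 365 nm, em 440 nm) read after glycine pH 12.5 stop of a 15 min room-temperature reaction. GCase 10 nM plus saposin C 100 nM in PS/triton micelles, pH 4.7, preincubated 30 min with compound; substrate solution held 2 mM 4-MU-beta-glucoside. Screened at 1.0 and 0.1 μM; 8-point, 3-fold curves from 5 μM top.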

Row | Percent Gcase Activation, 0.1 μM Test Compound | Percent Gcase Activation, 1 μM Test Compound | Structure (SMILES)
1 | * (less than 10% Gcase activation) | +++ (Gcase activation greater than 60%) | Cc1cc(N2CCC(F)(F)CC2)nc2c(C(=O)NC(C)C(F)(F)F)cnn12 (stereo not shown) [III-181]
2 | *** (greater than 20% Gcase activation) | +++ (Gcase activation greater than 60%) | Cc1cc(-c2cccc3c2OCO3)nc2c(C(=O)NC(C3CC3)C(F)(F)F)cnn12 (stereo not shown) [III-183]
3 | *** (greater than 20% Gcase activation) | +++ (Gcase activation greater than 60%) | Cc1cc(C)n2ncc(C(=O)NC(c3ccc(F)cc3)C(F)(F)F)c2n1 (stereo not shown) [III-184]
4 | *** (greater than 20% Gcase activation) | +++ (Gcase activation greater than 60%) | Cc1cc(-c2ccc(C#N)o2)nc2c(C(=O)NC(C3CC3)C(F)(F)F)cnn12 (stereo not shown) [III-185]
5 | *** (greater than 20% Gcase activation) | +++ (Gcase activation greater than 60%) | Cc1cc(-c2ccco2)nc2c(C(=O)NC(C3CC3)C(F)(F)F)cnn12 (stereo not shown) [III-186]
6 | *** (greater than 20% Gcase activation) | +++ (Gcase activation greater than 60%) | Cc1cc(-c2ccoc2)nc2c(C(=O)NC(C3CC3)C(F)(F)F)cnn12 (stereo not shown) [III-187]
7 | *** (greater than 20% Gcase activation) | +++ (Gcase activation greater than 60%) | Cc1cc(-c2cscc2C#N)nc2c(C(=O)NC(C3CC3)C(F)(F)F)cnn12 (stereo not shown) [III-188]
8 | *** (greater than 20% Gcase activation) | +++ (Gcase activation greater than 60%) | Cc1cc(-c2sccc2C#N)nc2c(C(=O)NC(C3CC3)C(F)(F)F)cnn12 (stereo not shown) [III-189]
9 | * (less than 10% Gcase activation) | + (less than 30% Gcase activation) | Cc1cc(C)n2ncc(C(=O)N[C@H]3CC[C@H](OC(C)(C)C)CC3)c2n1 [III-190]
10 | * (less than 10% Gcase activation) | +++ (Gcase activation greater than 60%) | Cc1cc(C)n2ncc(C(=O)N[C@H]3CC[C@H](OCC(C)C)CC3)c2n1 [III-191]
11 | *** (greater than 20% Gcase activation) | +++ (Gcase activation greater than 60%) | Cc1cc(-c2ccc3scnc3c2)nc2c(C(=O)N[C@@H](C)C3CC3)cnn12 [III-192]
12 | *** (greater than 20% Gcase activation) | +++ (Gcase activation greater than 60%) | Cc1cc(-c2ccc3scnc3c2)nc2c(C(=O)N[C@H](C)C3CC3)cnn12 [III-193]
13 | *** (greater than 20% Gcase activation) | +++ (Gcase activation greater than 60%) | COc1ccc(F)cc1-c1cc(C)n2ncc(C(=O)NC(C)C(F)(F)F)c2n1 (stereo not shown) [III-194]
14 | *** (greater than 20% Gcase activation) | +++ (Gcase activation greater than 60%) | COc1ccc(F)cc1-c1cc(C)n2ncc(C(=O)N[C@H](C)C(F)(F)F)c2n1 [III-195]
15 | *** (greater than 20% Gcase activation) | +++ (Gcase activation greater than 60%) | COc1ccc(F)cc1-c1cc(C)n2ncc(C(=O)N[C@@H](C)C(F)(F)F)c2n1 [III-196]
16 | *** (greater than 20% Gcase activation) | +++ (Gcase activation greater than 60%) | Cc1cc(-c2ccns2)nc2c(C(=O)N[C@@H](C)C3CC3)cnn12 [III-197]

Row | Percent Gcase Activation, 0.1 μM Test Compound | Percent Gcase Activation, 1 μM Test Compound | Structure (SMILES)
17 | * (less than 10% Gcase activation) | +++ (Gcase activation greater than 60%) | Cc1cc(-c2ccns2)nc2c(C(=O)N[C@H](C)C3CC3)cnn12 [III-198]
18 | *** (greater than 20% Gcase activation) | +++ (Gcase activation greater than 60%) | Cc1cc(-c2cncc(Cl)c2)nc2c(C(=O)NC(C)C(F)(F)F)cnn12 (stereo not shown) [III-200]
19 | *** (greater than 20% Gcase activation) | +++ (Gcase activation greater than 60%) | Cc1cc(-c2cncc(Cl)c2)nc2c(C(=O)N[C@H](C)C(F)(F)F)cnn12 [III-201]
20 | *** (greater than 20% Gcase activation) | +++ (Gcase activation greater than 60%) | Cc1cc(-c2cncc(Cl)c2)nc2c(C(=O)N[C@@H](C)C(F)(F)F)cnn12 [III-202]
21 | *** (greater than 20% Gcase activation) | +++ (Gcase activation greater than 60%) | Cc1cc(-c2ncccc2F)nc2c(C(=O)NC(C3CC3)C(F)(F)F)cnn12 (stereo not shown) [III-203]
22 | *** (greater than 20% Gcase activation) | +++ (Gcase activation greater than 60%) | Cc1cc(-c2ccc(F)cn2)nc2c(C(=O)NC(C3CC3)C(F)(F)F)cnn12 (stereo not shown) [III-204]
23 | *** (greater than 20% Gcase activation) | +++ (Gcase activation greater than 60%) | Cc1cc(-c2cc(F)ccn2)nc2c(C(=O)NC(C3CC3)C(F)(F)F)cnn12 (stereo not shown) [III-205]
24 | *** (greater than 20% Gcase activation) | +++ (Gcase activation greater than 60%) | Cc1cc(-c2ncccc2Cl)nc2c(C(=O)NC(C3CC3)C(F)(F)F)cnn12 (stereo not shown) [III-206]
25 | *** (greater than 20% Gcase activation) | +++ (Gcase activation greater than 60%) | Cc1cc(-c2cc(Cl)ccn2)nc2c(C(=O)NC(C3CC3)C(F)(F)F)cnn12 (stereo not shown) [III-207]
26 | *** (greater than 20% Gcase activation) | +++ (Gcase activation greater than 60%) | Cc1cc(-c2nccs2)nc2c(C(=O)NC(C3CC3)C(F)(F)F)cnn12 (stereo not shown) [III-209]
27 | *** (greater than 20% Gcase activation) | +++ (Gcase activation greater than 60%) | Cc1cc(-c2ccc3c(c2)OCO3)nc2c(C(=O)N[C@@H](C)C3CC3)cnn12 [III-210]
28 | *** (greater than 20% Gcase activation) | +++ (Gcase activation greater than 60%) | Cc1cc(-c2ccccc2C#N)nc2c(C(=O)NC(C3CC3)C(F)(F)F)cnn12 (stereo not shown) [III-211]
29 | *** (greater than 20% Gcase activation) | +++ (Gcase activation greater than 60%) | Cc1cc(-c2ccccc2C#N)nc2c(C(=O)N[C@@H](C)C(F)(F)F)cnn12 [III-213]
30 | *** (greater than 20% Gcase activation) | +++ (Gcase activation greater than 60%) | Cc1cc(-c2cc(C)n3ncc(C(=O)NC(C4CC4)C(F)(F)F)c3n2)sn1 (stereo not shown) [III-214]
31 | *** (greater than 20% Gcase activation) | +++ (Gcase activation greater than 60%) | Cc1cc(-c2cc(C)n3ncc(C(=O)N[C@H](C4CC4)C(F)(F)F)c3n2)sn1 [III-215]
32 | *** (greater than 20% Gcase activation) | +++ (Gcase activation greater than 60%) | Cc1cc(-c2cc(C)n3ncc(C(=O)N[C@@H](C4CC4)C(F)(F)F)c3n2)sn1 [III-216]

Row | Structure (SMILES) | Percent Gcase Activation, 0.1 μM Test Compound | Percent Gcase Activation, 1 μM Test Compound
33 | Cc1cc(N2CCC(F)(F)C2)nc2c(C(=O)NC(C)C(F)(F)F)cnn12 (stereo not shown) [III-180] | ** (Gcase activation in the range of 10% up to 20%) | +++ (Gcase activation greater than 60%)
34 | Cc1cc(-c2cccc3c2OCO3)nc2c(C(=O)N[C@@H](C)C3CC3)cnn12 [III-182] | *** (greater than 20% Gcase activation) | ++ (Gcase activation in the range of 30% up to 60%)
35 | Cc1cc(-c2cnccc2F)nc2c(C(=O)NC(C)C(F)(F)F)cnn12 (stereo not shown) [III-199] | * (less than 10% Gcase activation) | ++ (Gcase activation in the range of 30% up to 60%)
36 | Cc1cc(-c2ccc(Cl)cn2)nc2c(C(=O)NC(C3CC3)C(F)(F)F)cnn12 (stereo not shown) [III-208] | ** (Gcase activation in the range of 10% up to 20%) | + (less than 30% Gcase activation)
37 | Cc1cc(-c2ccccc2C#N)nc2c(C(=O)N[C@H](C)C(F)(F)F)cnn12 [III-212] | * (less than 10% Gcase activation) | ++ (Gcase activation in the range of 30% up to 60%)
38 | Cc1cc(-c2cccc3ncoc23)nc2c(C(=O)N[C@@H](C)C3CC3)cnn12 [III-217] | ** (Gcase activation in the range of 10% up to 20%) | +++ (Gcase activation greater than 60%)
